Source: patent US5342612A, “Compositions for the treatment of mammalian diseases” (priority 1991, dated 1994)

Assays:
[1] = test system: Staphylococcus aureus (Newbould 305); test: Potentiation of lysostaphin bacteriostatic activity (minimum inhibitory concentration); assay type: cell-based; details: in saline, diluted in MHB
Experimental: Dissolved in 15% w/v poloxamer 407 NF is 512 μg/mL of lysostaphin by adding 487.4 μl of a 2.5 mg/mL aqueous solution to 1512.6 μl of the 15% w/v poloxamer 407 NF in sPBS. The lysostaphin is first filtered through a 0.22 μ filter and the concentration is adjusted (1.19 factor). The poloxamer 407 NF is mixed overnight and filtered through a 0.22μ cellulose acetate filter. In a similar fashion, preparations with other vehicles such as lysostaphin in triacetin are prepared.
Lysostaphin in Mueller-Hinton Broth is run as a control and a 512 μg/mL solution is prepared from the same 2.5 mg/mL solution as the poloxamer 407 NF mixture. Placed in 189 μl of Mueller-Hinton Broth is 61 μl of the 2.5 mg/mL solution.
Placed in the first well of a 12 well row is 100 μl of each mixture and serial two-fold dilutions are performed in Mueller-Hinton Broth through row 12. Following dilution, 50 μl of inoculum is added to each well. Inoculum is prepared by inoculating a tube of trypticase soy broth (TSB) from an overnight trypticase soy agar (TSA) culture containing a 10% sheep blood plate of Staphylococcus aureus (Newbould 305). The tube is incubated for 5 hours at 37° C. with constant agitation. […]
The inhibitory profile as measured by the reduction of the optical density at 650 nm in the presence of the vehicle is then compared to that of lysostaphin diluted in Mueller-Hinton Broth. […]

S. aureus = test: Potentiation of lysostaphin bactericidal activity (minimum bactericidal concentration assay, survival of S. aureus); assay type: cell-based, Staphylococcus aureus; details: 18 h
Experimental: Preparation of 50% glycerol and 15% poloxamer 407 NF plus lysostaphin is as follows: The lysostaphin stock of 2.5 mg/mL is thawed and filtered through a 0.22μ filter. [formula]
In a similar fashion, triacetin solutions are also prepared.
Mueller-Hinton Broth containing lysostaphin is prepared as above. Penicillin in Mueller-Hinton Broth is prepared to serve as a control. Starting with a frozen 2.5 mg/mL stock solution the penicillin is diluted as follows: 400 μl of 2.5 mg/mL is placed in 600 μl of Mueller-Hinton Broth to yield a 1000 μg/mL solution. Added to 3744 μl of Mueller-Hinton Broth is 256 μl of the 1000 μg/mL solution to yield a 64 μg/mL solution.
Placed in sterile tubes are 2 mL of the vehicle and lysostaphin; Mueller-Hinton Broth plus lysostaphin; and Mueller-Hinton Broth plus penicillin. Serial two-fold dilutions are performed by hand using 1 mL of the appropriate vehicle as the diluent. Lysostaphin and penicillin dilutions range from 64 μg/mL to 0.25 μg/mL. All combinations are done in duplicate. The Staphylococcus aureus is grown for 5 hours in 5 mL of TSB and 0.1 mL is removed and placed in 9.9 mL of saline. Each tube is inoculated with 100 μl of the diluted culture. Plate counts are performed on the inoculum. All tubes are incubated for 18 hours at 37° C. with constant agitation. Following incubation, each dilution of lysostaphin in the vehicles or Mueller-Hinton Broth and penicillin in Mueller-Hinton Broth is diluted in phosphate buffered saline to 10^-2, 10^-4 and 10^-6.
Plated on a TSA with 10% sheep blood is 100 μl of the undilute and of each dilution. The plates are inverted and incubated for 18 hours. Following incubation, the number of colonies on each plate is counted.
The vehicles which inhibit the growth or are moderately bactericidal to S. aureus by themselves are unable to be evaluated using the MIC procedure. For these vehicles a minimum bactericidal concentration assay (MBC) is performed. This assay in conjunction with the previous MIC data distinguish bacteriostatic effects versus bactericidal effects of the vehicles. Various formulations are mixed with lysostaphin at a final concentration of 32 μg/mL. Ten, serial two- or four-fold dilutions of the lysostaphin are performed in the vehicle and each tube inoculated with a 2-6 x's 106 S. aureus CFU's (bacterial colony-forming units). Samples are removed after 18 hours and plated on blood agar plates.

S. aureus mastitis = details: Oldham et al.; in words; cited from earlier work
[2] = test system: P388.D1 (Macrophage tumor cell line); test: in vitro; assay type: cell-based, murine
Experimental: (§1) Cell Lines: A20: B-cell tumor cell line 9C127: T-cell hybridoma cell line LB/62287: B-cell lymphoma cell line P388.D1: Macrophage tumor cell line
(§2) Cell lines (1×10^5 /well; >85% viability) are cultured in 24 well flat bottom plates in RPMI® medium (Gibco Laboratories, Grand Island, N.Y.) supplemented with 10% fetal calf serum, streptomycin (100 μg/mL) and penicillin (100 U/mL). Cultures are incubated (37° C., 10% CO2) with the following concentrations of vehicles:
(§3) c) 1.0%, 0.1% or 0.01% Triacetin or IMWITOR®
(§4) After a 72 hour or 6 hour incubation period, cells are harvested and counted by the Coulter Counter (Northwell Drive, England). Cell viability is determined using a Coulter Channelyzer.
(§5) The relative toxicity of the sample formulations to estimate the relative degree of toxicity for in vivo administration is carried out in vitro with the mammalian cell lines. Various concentrations of the vehicles are incubated for either 6 or 24 hours with the different mammalian cell lines. Immediate toxicity is evaluated at 6 hours by quantitating the number of dead cells in treated wells as compared to the untreated controls. Long term toxicity effects as well as effects which may inhibit cell growth are evaluated by measuring the relative degree of proliferation after an additional 48 hours incubation with ^3 H-thymidine.

[3] = test system: A20 (B-cell tumor cell line); test: Toxicity of formulations on mammalian cell lines (cell viability, Coulter); assay type: cell-based, murine
Experimental: as §1, §2, §3, §4, §5

[4] = test system: 9C127 (T-cell hybridoma cell line); test: as above; assay type: cell-based, murine
Experimental: as §1, §2, §3, §4, §5

[5] = lysostaphin (or penicillin) 1 μg/mL
[6] = lysostaphin (or penicillin) 4 μg/mL

Substance | Control MIC of lysostaphin ([1]; control of the PLURONIC F127 line) | Control MIC of lysostaphin ([1]; control of the triacetin line) | Survival of S. aureus CFU (Log 10) in Vehicles (S. aureus; lysostaphin 0.25 μg/mL) | Killing of S. aureus (footnote class) (S. aureus; lysostaphin 2 μg/mL) | Survival of S. aureus CFU (Log 10) in Vehicles (S. aureus; lysostaphin 2 μg/mL) | Killing of S. aureus (footnote class) (S. aureus; lysostaphin 8 μg/mL) | Survival of S. aureus CFU (Log 10) in Vehicles (S. aureus; lysostaphin (or penicillin) 0.5 μg/mL) | Killing of S. aureus (footnote class) (S. aureus; [5]) | Survival of S. aureus CFU (Log 10) in Vehicles (S. aureus; [5]) | Killing of S. aureus (footnote class) (S. aureus; [6]) | Survival of S. aureus CFU (Log 10) in Vehicles (S. aureus; [6]) | Survival of S. aureus CFU (Log 10) in Vehicles (S. aureus; lysostaphin (or penicillin) 8 μg/mL) | Therapeutic efficacy compared with CEFA-LAK (S. aureus mastitis) | Relative Toxicity at 6 Hours [2] | Relative Toxicity at 6 Hours [3] | Relative Toxicity at 6 Hours [4]
Lysostaphin: gene product of Staphylococcus simulans, enzymatically degrading the polyglycine crosslinks of the cell wall | 0.125 | 1.0 | 9.7 CFU (Log 10) | ^3 (Greater than 99.99% killing of S. aureus) | 3.6 CFU (Log 10) | ^3 (Greater than 99.99% killing of S. aureus) | 8.6 CFU (Log 10) | ^2 (Greater than 95% killing of S. aureus) | 8.1 CFU (Log 10) | ^3 (Greater than 99.99% killing of S. aureus) | 4.8 CFU (Log 10) | 3.3 CFU (Log 10) | not equivalent to the commercially available product CEFA-LAK® |  |  | 
PLURONIC ® F 127 |  |  |  |  |  |  |  |  |  |  |  |  |  | - | - | -
